# From article PMC5740067 (Scientific Reports, 2017)
# “Also recorded” adds a separate entry of the source. Where two headings read alike, the source gives them in different places.
# Key:
# LAO WT = target: T1, LAO WT (Salmonella typhimurium, UniProt P02911); experiment: biochemical; type: binding, Salmonella enterica
# T1 construct: The mature LAO expression plasmid, LAO-Q122A, OccJ-S91G and OccJ-N202D were chemically synthesized; pET-28a); host or cells: E. coli BL21
# Protocol: (§1) Isothermal titration microcalorimetry experiments were performed with an ITC200 isothermal titration calorimeter from MicroCal (GE Healthcare). The experiments were carried out at 20 °C. Protein concentration in the microcalorimeter cell (0.2 mL) varied from 20 to 150 µM. Nineteen injections of 2 µL of ligand solution (amino acids, opines and octopine derivatives) at concentration ranging from 240 µM to 1.5 mM were performed at intervals of 180 s while stirring at 500 rpm. The experimental data were fitted to theoretical titration curves with software supplied by MicroCal (ORIGIN®). This software uses the relationship between the heat generated by each injection and ΔH (enthalpy change in kcal/mol), Ka (the association binding constant in M^−1), n (the number of binding sites), total protein concentration and free and total ligand concentrations.
# OccJ WT [1] = target: T2, OccJ WT (Agrobacterium tumefaciens, UniProt P0A4F8); experiment: OccJ WT ligand binding, isothermal titration microcalorimetry; details: ITC, 20 °C
# T2 construct: The mature PBP OccJ (256 aa without the signal peptide) expression plasmid was obtained by cloning the occJ gene lacking the first twenty residues; hexahistidine (C); made in house; host or cells: E. coli BL21
# T2 sequence (P0A4F8 21-276): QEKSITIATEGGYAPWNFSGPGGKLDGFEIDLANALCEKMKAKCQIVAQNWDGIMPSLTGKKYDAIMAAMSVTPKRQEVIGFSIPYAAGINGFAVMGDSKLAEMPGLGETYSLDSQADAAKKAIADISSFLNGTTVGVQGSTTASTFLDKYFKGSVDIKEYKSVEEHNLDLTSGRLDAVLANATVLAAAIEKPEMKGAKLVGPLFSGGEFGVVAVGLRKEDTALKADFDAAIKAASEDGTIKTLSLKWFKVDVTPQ
# Protocol: as §1
# NocT WT [2] = target: T3, NocT WT (Agrobacterium fabrum, UniProt P35120); details: cited from earlier work; for K D, amino acids: F/ITC, ref [6]
# T3 construct: Cloning of mature OccJ, NocT-G97S, OccJ-S91G, OccJ-N202D, LAO and LAO-Q122A; made in house
# T3 sequence (P35120 26-283): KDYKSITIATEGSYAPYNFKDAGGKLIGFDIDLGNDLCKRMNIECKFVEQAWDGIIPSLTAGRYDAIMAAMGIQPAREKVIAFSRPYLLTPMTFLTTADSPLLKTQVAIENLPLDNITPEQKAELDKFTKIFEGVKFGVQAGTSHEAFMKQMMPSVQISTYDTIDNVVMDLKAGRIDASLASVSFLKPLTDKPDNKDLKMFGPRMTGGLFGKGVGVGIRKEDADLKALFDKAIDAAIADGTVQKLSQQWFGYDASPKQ
# OccJ N202D = target: T4, OccJ N202D (Agrobacterium tumefaciens, UniProt P0A4F8, N202D); type: binding; details: ITC, 20 °C
# T4 construct: The mature LAO expression plasmid, LAO-Q122A, OccJ-S91G and OccJ-N202D were chemically synthesized; pET-28a); host or cells: E. coli BL21
# T4 sequence (P0A4F8 21-276 N202D): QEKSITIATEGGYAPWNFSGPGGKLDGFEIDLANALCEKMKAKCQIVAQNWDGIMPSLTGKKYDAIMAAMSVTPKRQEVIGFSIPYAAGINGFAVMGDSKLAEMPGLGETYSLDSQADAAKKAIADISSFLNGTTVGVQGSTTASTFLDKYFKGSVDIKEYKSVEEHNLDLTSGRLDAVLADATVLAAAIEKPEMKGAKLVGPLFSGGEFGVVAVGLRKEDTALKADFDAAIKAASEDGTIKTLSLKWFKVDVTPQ
# Protocol: as §1
# LAO = target: LAO; design: method as in PMID 1400387; details: ref [20]; cited from earlier work
# LAO Q122A = target: T5, LAO Q122A (Salmonella typhimurium, UniProt P02911, Q144A); experiment: LAO Q122A ligand binding, ITC; design: species or system Salmonella enterica
# T5 construct: The mature LAO expression plasmid, LAO-Q122A, OccJ-S91G and OccJ-N202D were chemically synthesized; pET-28a); host or cells: E. coli BL21
# T5 sequence (P02911 23-260 Q144A): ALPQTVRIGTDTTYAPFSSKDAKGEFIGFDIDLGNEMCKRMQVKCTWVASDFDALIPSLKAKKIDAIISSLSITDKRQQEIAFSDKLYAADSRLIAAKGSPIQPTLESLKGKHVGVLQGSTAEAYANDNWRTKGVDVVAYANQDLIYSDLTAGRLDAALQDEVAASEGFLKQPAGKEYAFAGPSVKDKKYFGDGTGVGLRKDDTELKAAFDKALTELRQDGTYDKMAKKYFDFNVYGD
# Protocol: as §1
# OccJ S91G = target: T6, OccJ S91G (Agrobacterium tumefaciens, UniProt P0A4F8, S91G); experiment: OccJ S91G ligand binding, fluorescence titration; details: intrinsic protein fluorescence titration; 20 °C; pH 8.0
# T6 construct: The mature LAO expression plasmid, LAO-Q122A, OccJ-S91G and OccJ-N202D were chemically synthesized; pET-28a); host or cells: E. coli BL21
# T6 sequence (P0A4F8 21-276 S91G): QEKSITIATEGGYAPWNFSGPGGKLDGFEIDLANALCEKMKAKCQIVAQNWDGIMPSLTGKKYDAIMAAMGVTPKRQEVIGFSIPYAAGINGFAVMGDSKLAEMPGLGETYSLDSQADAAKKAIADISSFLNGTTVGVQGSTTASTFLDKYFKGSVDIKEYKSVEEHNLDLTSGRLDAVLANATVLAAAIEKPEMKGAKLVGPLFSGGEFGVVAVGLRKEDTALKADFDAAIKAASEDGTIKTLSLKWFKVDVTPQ
# Protocol: (§2) Binding of ligands to OccJ, NocT, LAO and protein mutants was monitored by autofluorescence by exciting the protein at a wavelength of 295 nm and monitoring the quenching of fluorescence emission of tryptophans at 335 nm. All experiments were performed at 20 °C in 96 wells plates (1/2 Area Plate-96F, Perkin Elmer) using Tecan Infinite M1000 reader (Tecan), in 50 mM Tris-HCl pH 8.0, 150 mM NaCl buffer with a fixed amount of proteins (1 µM) and increasing concentrations of ligand. […] The data were analysed using Origin® 7 software and fitted to the equation f = ΔFluorescencemax * abs(x)/(K D + abs(x)).
# OccJ WT [3] = target: T2, OccJ WT; experiment: biochemical; type: binding
# Protocol: as §2
# NocT WT [4] = target: T3, NocT WT; type: binding, Agrobacterium tumefaciens; details: fluorescence titration; 20 °C; pH 8.0; octopine family members and analogues; read-out: Kd (F)
# Protocol: as §2
# NocT WT [5] = target: T3, NocT WT; type: binding, Agrobacterium tumefaciens; details: ITC, 20 °C
# Protocol: as §1
# NocT G97S = target: T7, NocT G97S (Agrobacterium fabrum, UniProt P35120, G97S); type: binding, Agrobacterium tumefaciens; details: intrinsic protein fluorescence titration; 20 °C; pH 8.0
# T7 construct: Cloning of mature OccJ, NocT-G97S, OccJ-S91G, OccJ-N202D, LAO and LAO-Q122A; made in house; host or cells: E. coli BL21
# T7 sequence (P35120 26-283 G97S): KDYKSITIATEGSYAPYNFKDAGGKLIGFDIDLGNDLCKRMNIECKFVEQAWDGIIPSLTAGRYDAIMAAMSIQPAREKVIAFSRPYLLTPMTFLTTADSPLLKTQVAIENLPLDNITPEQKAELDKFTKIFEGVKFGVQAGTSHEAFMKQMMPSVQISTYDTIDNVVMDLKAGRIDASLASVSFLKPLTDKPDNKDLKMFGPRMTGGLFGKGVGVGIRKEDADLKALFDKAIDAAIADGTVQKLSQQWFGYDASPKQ
# [6] = fluorescence titration, read-out: apparent dissociation constant K D
# [7] = intrinsic protein fluorescence titration, 20 °C, 50 mM Tris-HCl pH 8.0, 150 mM NaCl, 1 µM protein, read-out: K D (F)
# [8] = intrinsic protein fluorescence titration, 20 °C, 50 mM Tris-HCl pH 8.0, 150 mM NaCl, 1 µM protein
# T1 sequence (P02911 23-260): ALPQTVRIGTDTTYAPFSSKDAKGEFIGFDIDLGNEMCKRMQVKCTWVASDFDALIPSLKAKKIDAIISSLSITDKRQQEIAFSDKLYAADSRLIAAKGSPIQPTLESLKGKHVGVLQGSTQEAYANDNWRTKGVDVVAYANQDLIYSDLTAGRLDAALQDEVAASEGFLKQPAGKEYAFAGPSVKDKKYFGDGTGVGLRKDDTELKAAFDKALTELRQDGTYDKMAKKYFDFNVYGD
Molecule,Enthalpy (ΔH) (OccJ WT [1]),Entropic contribution (-TΔS) (OccJ WT [1]),Entropy (ΔS) (OccJ WT [1]),Free enthalpy (ΔG) (OccJ WT [1]),Kd (OccJ WT [1]),K D (F) (OccJ S91G),Kd (NocT WT [4]),Enthalpy (ΔH) (NocT WT [5]),Entropic contribution (-TΔS) (NocT WT [5]),Entropy (ΔS) (NocT WT [5]),Free enthalpy (ΔG) (NocT WT [5]),Kd (NocT WT [5]),Kd (OccJ WT [3]; [7]),further results
N=C(N)NCCC[C@H](N)C(=O)O [L-arginine],-4.208 kcal/mol,-1.755 kcal/mol,5.99 cal/mol/deg,-5.964 kcal/mol,35.7 µM,can no longer bind,,,,,,,,"Kd (LAO WT): 0.024 ± 0.002 µM; Enthalpy (ΔH) (LAO WT; ITC, 20 °C): -10.91 kcal/mol; Entropic contribution (-TΔS) (LAO WT; ITC, 20 °C): 0.703 kcal/mol; Entropy (ΔS) (LAO WT; ITC, 20 °C): -2.4 cal/mol/deg; Free enthalpy (ΔG) (LAO WT; ITC, 20 °C): -10.207 kcal/mol; K D, amino acids (NocT WT [2]): does not interact; Enthalpy (ΔH) (OccJ N202D): -0.632 kcal/mol; Entropic contribution (-TΔS) (OccJ N202D): -5.696 kcal/mol; Entropy (ΔS) (OccJ N202D): 19.3 cal/mol/deg; Free enthalpy (ΔG) (OccJ N202D): -6.328 kcal/mol; previous reported affinity (LAO): nanomolar range; Kd (LAO Q122A): 0.12 ± 0.01 µM; fold lower affinity of LAO-Q122A compared with WT (LAO Q122A; ITC): 5 fold; Enthalpy (ΔH) (LAO Q122A; ITC, 20 °C): -6.853 kcal/mol; Entropic contribution (-TΔS) (LAO Q122A; ITC, 20 °C): -2.433 kcal/mol; Entropy (ΔS) (LAO Q122A; ITC, 20 °C): 8.3 cal/mol/deg; Free enthalpy (ΔG) (LAO Q122A; ITC, 20 °C): -9.286 kcal/mol; Kd (OccJ WT [3]): 7.2 ± 1 µM"
C[C@@H](N[C@@H](CCCN)C(=O)O)C(=O)O [octopinic acid],-9.547 kcal/mol,-0.41 kcal/mol,1.40 cal/mol/deg,-9.957 kcal/mol,0.038 ± 0.007 µM,,1.8 ± 0.3 µM,-3.658 kcal/mol,-3.517 kcal/mol,12.0 cal/mol/deg,-7.175 kcal/mol,4.4 ± 0.4 µM,0.017 ± 0.003 µM,Kd (OccJ WT [3]; [6]): 0.017 ± 0.003 µM
homo-octopine,-7.611 kcal/mol,-0.806 kcal/mol,2.75 cal/mol/deg,-8.417 kcal/mol,,,,-3.832 kcal/mol,-2.222 kcal/mol,7.58 cal/mol/deg,-6.054 kcal/mol,,,
NC(N)=NCCC[C@H](N[C@H](CCC(=O)O)C(=O)O)C(=O)O [nopaline],,,,,,not a ligand,,,,,,,,"K D (F) (NocT G97S): abolished the nopaline binding ability; Kd (NocT WT [2]; fluorescence titration, octopine and nopaline, ref [6],[14], read-out: K D (F)): 3.7 ± 0.6 µM; K D (F) (OccJ WT [3]; [8]): No fluorescence intensity change was detected; also recorded: no interaction"
NCCC[C@H](N)C(=O)O [ornithine],-1.102 kcal/mol,-4.778 kcal/mol,16.3 cal/mol/deg,-5.88 kcal/mol,40.5 µM,can no longer bind,,,,,,,,previous reported affinity (LAO): nanomolar range; Kd (OccJ WT [3]): 31.2 ± 3.5 µM
C[C@@H](N[C@@H](CCCCN)C(=O)O)C(=O)O [lysopine],-4.832 kcal/mol,-4.455 kcal/mol,15.2 cal/mol/deg,-9.287 kcal/mol,0.11 ± 0.02 µM,,11.2 ± 3.5 µM,,,,,,0.14 ± 0.01 µM,Kd (OccJ WT [3]; [6]): 0.14 ± 0.01 µM
NCCC[C@H](NCC(=O)O)C(=O)O [noroctopinic acid],-7.202 kcal/mol,-1.934 kcal/mol,6.60 cal/mol/deg,-9.136 kcal/mol,0.15 ± 0.01 µM,,19.3 ± 1.37 µM,0.62 kcal/mol,-6.83 kcal/mol,23.3 cal/mol/deg,-6.21 kcal/mol,23 ± 5 µM,,
CC(N[C@@H](Cc1cnc[nH]1)C(=O)O)C(=O)O (some centres unmarked) [histopine],-0.854 kcal/mol,-3.81 kcal/mol,13 cal/mol/deg,-4.664 kcal/mol,326 µM,,84.4 ± 6.7 µM,,,,,,33.1 ± 3.5 µM,K D (F) (OccJ WT [3]; [8]): micromolar range
N[C@@H](Cc1c[nH]cn1)C(=O)O [histidine],,,,,,,,,,,,,,K D (F) (OccJ WT [3]; [8]): No fluorescence intensity change was detected
NC(N)=NCCC[C@H](NCC(=O)O)C(=O)O [noroctopine],-4.804 kcal/mol,-4.367 kcal/mol,14.8 cal/mol/deg,-9.171 kcal/mol,0.15 ± 0.01 µM,,33.4 ± 2.7 µM,0.872 kcal/mol,-6.39 kcal/mol,21.8 cal/mol/deg,-5.518 kcal/mol,78 ± 9 µM,0.19 ± 0.05 µM,fold better affinity of OccJ compared with arginine or ornithine alone (OccJ WT [3]; opine analogue versus its amino acid): 10 fold
NCCCC[C@H](N)C(=O)O [L-lysine],-4.92 kcal/mol,-0.645 kcal/mol,2.20 cal/mol/deg,-5.565 kcal/mol,71 µM,can no longer bind,,,,,,,,"K D, amino acids (NocT WT [2]): does not interact; previous reported affinity (LAO): nanomolar range; Kd (OccJ WT [3]): 7.5 ± 2.1 µM"
N=C(N)NCCCC[C@H](NCC(=O)O)C(=O)O [homo-noroctopine],-4.115 kcal/mol,-2.207 kcal/mol,7.53 cal/mol/deg,-6.322 kcal/mol,19.3 ± 1.4 µM,,21.3 ± 2.1 µM,-1.195 kcal/mol,-4.309 kcal/mol,14.7 cal/mol/deg,-5.504 kcal/mol,79 ± 14 µM,4.63 ± 0.42 µM,
